PubChem BioAssay (NCI)
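48-hour exposure; five concentrations; linearly interpolated endpoints. GI50 is the concentration that inhibits growth by half. TGI is the concentration that stops growth completely.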

Legend:
Experiment in all cases: growth of human tumour cells (NCI), 48 h
MDA-MB-231 breast = test system: MDA-MB-231 breast
SNB-19 CNS = test system: SNB-19 CNS
LOX IMVI melanoma = test system: LOX IMVI melanoma
SN12C renal = test system: SN12C renal
OVCAR-8 ovarian = test system: OVCAR-8 ovarian
DU-145 prostate = test system: DU-145 prostate
SK-MEL-28 melanoma = test system: SK-MEL-28 melanoma
OVCAR-3 ovarian = test system: OVCAR-3 ovarian
BT-549 breast = test system: BT-549 breast
UACC-62 melanoma = test system: UACC-62 melanoma
KM12 colon = test system: KM12 colon
HCT-116 colon = test system: HCT-116 colon
SK-OV-3 ovarian = test system: SK-OV-3 ovarian
HL-60(TB) leukemia = test system: HL-60(TB) leukemia
T-47D breast = test system: T-47D breast
TK-10 renal = test system: TK-10 renal
RXF 393 renal = test system: RXF 393 renal
SK-MEL-5 melanoma = test system: SK-MEL-5 melanoma
UO-31 renal = test system: UO-31 renal
SF-295 CNS = test system: SF-295 CNS
SK-MEL-2 melanoma = test system: SK-MEL-2 melanoma
M14 melanoma = test system: M14 melanoma
NCI-H460 lung = test system: NCI-H460 lung
HT29 colon = test system: HT29 colon
U251 CNS = test system: U251 CNS
HCT-15 colon = test system: HCT-15 colon
PC-3 prostate = test system: PC-3 prostate
HCC-2998 colon = test system: HCC-2998 colon
SNB-75 CNS = test system: SNB-75 CNS
SR leukemia = test system: SR leukemia
SW-620 colon = test system: SW-620 colon
MCF7 breast = test system: MCF7 breast
MDA-MB-435 = test system: MDA-MB-435
HOP-62 NSCLC = test system: HOP-62 NSCLC
NCI-H226 lung = test system: NCI-H226 lung
SF-268 CNS = test system: SF-268 CNS
CAKI-1 renal = test system: CAKI-1 renal
OVCAR-4 ovarian = test system: OVCAR-4 ovarian
COLO 205 colon = test system: COLO 205 colon
A498 renal = test system: A498 renal
MALME-3M melanoma = test system: MALME-3M melanoma
A549 NSCLC = test system: A549 NSCLC
786-0 renal = test system: 786-0 renal
IGROV1 ovarian = test system: IGROV1 ovarian
K-562 leukemia = test system: K-562 leukemia
NCI-H23 lung = test system: NCI-H23 lung
ACHN renal = test system: ACHN renal
EKVX NSCLC = test system: EKVX NSCLC
NCI-H522 lung = test system: NCI-H522 lung
NCI/ADR-RES ovarian = test system: NCI/ADR-RES ovarian
MOLT-4 leukemia = test system: MOLT-4 leukemia
SF-539 CNS = test system: SF-539 CNS
UACC-257 melanoma = test system: UACC-257 melanoma
HOP-92 NSCLC = test system: HOP-92 NSCLC
OVCAR-5 ovarian = test system: OVCAR-5 ovarian

With CCCCCOc1ccc(/C=N/Nc2cc(C)nc3ccc(Cl)cc23)cc1 the GI50 (MDA-MB-231 breast) was 1.71 µM, the TGI (MDA-MB-231 breast) was 3.23 µM and the GI50 (SNB-19 CNS) was 1.87 µM. It also gave a TGI (SNB-19 CNS) of 3.41 µM, a GI50 (LOX IMVI melanoma) of 1.69 µM and a TGI (LOX IMVI melanoma) of 3.15 µM. For the same molecule, the GI50 (SN12C renal) was 1.71 µM, the TGI (SN12C renal) was 3.22 µM and the GI50 (OVCAR-8 ovarian) was 1.98 µM. The TGI (OVCAR-8 ovarian) was 4.23 µM, the GI50 (DU-145 prostate) was 1.88 µM and the TGI (DU-145 prostate) was 3.7 µM. For the same molecule, the GI50 (SK-MEL-28 melanoma) was 1.69 µM, the TGI (SK-MEL-28 melanoma) was 3.09 µM and the GI50 (OVCAR-3 ovarian) was 1.97 µM. It also gave a TGI (OVCAR-3 ovarian) of 3.58 µM, a GI50 (BT-549 breast) of 1.74 µM and a TGI (BT-549 breast) of 3.28 µM. The GI50 (UACC-62 melanoma) was 1.68 µM, the TGI (UACC-62 melanoma) was 3.15 µM and the GI50 (KM12 colon) was 1.79 µM. It also gave a TGI (KM12 colon) of 3.41 µM, a GI50 (HCT-116 colon) of 1.04 µM and a TGI (HCT-116 colon) of 2.29 µM. For the same molecule, the GI50 (SK-OV-3 ovarian) was 1.65 µM, the TGI (SK-OV-3 ovarian) was 3.08 µM and the GI50 (HL-60(TB) leukemia) was 1.64 µM. It also gave a TGI (HL-60(TB) leukemia) of 3.36 µM, a GI50 (T-47D breast) of 1.76 µM and a TGI (T-47D breast) of 3.71 µM. For the same molecule, the GI50 (TK-10 renal) was 1.77 µM, the TGI (TK-10 renal) was 3.16 µM and the GI50 (RXF 393 renal) was 1.63 µM. For the same molecule, the TGI (RXF 393 renal) was 3.08 µM, the GI50 (SK-MEL-5 melanoma) was 1.63 µM and the TGI (SK-MEL-5 melanoma) was 3.01 µM. It also gave a GI50 (UO-31 renal) of 1.56 µM, a TGI (UO-31 renal) of 2.93 µM and a GI50 (SF-295 CNS) of 1.77 µM. It also gave a TGI (SF-295 CNS) of 3.34 µM, a GI50 (SK-MEL-2 melanoma) of 1.7 µM and a TGI (SK-MEL-2 melanoma) of 3.17 µM. For the same molecule, the GI50 (M14 melanoma) was 1.76 µM, the TGI (M14 melanoma) was 3.23 µM and the GI50 (NCI-H460 lung) was 1.95 µM. It also gave a TGI (NCI-H460 lung) of 3.96 µM, a GI50 (HT29 colon) of 1.44 µM and a TGI (HT29 colon) of 2.81 µM. It also gave a GI50 (U251 CNS) of 1.7 µM, a TGI (U251 CNS) of 3.16 µM and a GI50 (HCT-15 colon) of 1.43 µM. For the same molecule, the TGI (HCT-15 colon) was 2.84 µM, the GI50 (PC-3 prostate) was 1.61 µM and the TGI (PC-3 prostate) was 3.1 µM. The GI50 (HCC-2998 colon) was 1.95 µM, the TGI (HCC-2998 colon) was 3.54 µM and the GI50 (SNB-75 CNS) was 1.63 µM. The TGI (SNB-75 CNS) was 3.22 µM, the GI50 (SR leukemia) was 0.369 µM and the TGI (SR leukemia) was 1.73 µM. For the same molecule, the GI50 (SW-620 colon) was 1.73 µM, the TGI (SW-620 colon) was 3.53 µM and the GI50 (MCF7 breast) was 1.64 µM. For the same molecule, the TGI (MCF7 breast) was 3.4 µM, the GI50 (MDA-MB-435) was 1.75 µM and the TGI (MDA-MB-435) was 3.21 µM. For the same molecule, the GI50 (HOP-62 NSCLC) was 1.62 µM, the TGI (HOP-62 NSCLC) was 3.29 µM and the GI50 (NCI-H226 lung) was 1.64 µM. The TGI (NCI-H226 lung) was 3.68 µM, the GI50 (SF-268 CNS) was 2.23 µM and the TGI (SF-268 CNS) was 4.46 µM. The GI50 (CAKI-1 renal) was 1.64 µM, the TGI (CAKI-1 renal) was 3.03 µM and the GI50 (OVCAR-4 ovarian) was 1.72 µM. It also gave a TGI (OVCAR-4 ovarian) of 3.22 µM, a GI50 (COLO 205 colon) of 1.89 µM and a TGI (COLO 205 colon) of 3.61 µM. For the same molecule, the GI50 (A498 renal) was 1.19 µM, the TGI (A498 renal) was 2.47 µM and the GI50 (MALME-3M melanoma) was 1.85 µM. For the same molecule, the TGI (MALME-3M melanoma) was 3.39 µM, the GI50 (A549 NSCLC) was 1.9 µM and the TGI (A549 NSCLC) was 3.52 µM. The GI50 (786-0 renal) was 1.78 µM, the TGI (786-0 renal) was 3.32 µM and the GI50 (IGROV1 ovarian) was 1.91 µM. For the same molecule, the TGI (IGROV1 ovarian) was 3.6 µM, the GI50 (K-562 leukemia) was 0.691 µM and the TGI (K-562 leukemia) was 2.27 µM. It also gave a GI50 (NCI-H23 lung) of 1.78 µM, a TGI (NCI-H23 lung) of 3.47 µM and a GI50 (ACHN renal) of 1.75 µM. The TGI (ACHN renal) was 3.13 µM, the GI50 (EKVX NSCLC) was 1.67 µM and the TGI (EKVX NSCLC) was 3.07 µM. It also gave a GI50 (NCI-H522 lung) of 1.63 µM, a TGI (NCI-H522 lung) of 3.08 µM and a GI50 (NCI/ADR-RES ovarian) of 1.89 µM. For the same molecule, the TGI (NCI/ADR-RES ovarian) was 3.92 µM, the GI50 (MOLT-4 leukemia) was 1.65 µM and the TGI (MOLT-4 leukemia) was 3.36 µM. It also gave a GI50 (SF-539 CNS) of 1.86 µM, a TGI (SF-539 CNS) of 3.3 µM and a GI50 (UACC-257 melanoma) of 1.72 µM. It also gave a TGI (UACC-257 melanoma) of 3.27 µM, a GI50 (HOP-92 NSCLC) of 1.47 µM and a TGI (HOP-92 NSCLC) of 2.96 µM. It also gave a GI50 (OVCAR-5 ovarian) of 1.82 µM and a TGI (OVCAR-5 ovarian) of 3.23 µM.
For C#CC[C@@H]1C[C@]2(C)[C@H]3CC[C@@H]4[C@H]5C(C(=C)C)CC[C@]5(C(=O)NCCN(CCN)CCN)CC[C@@]4(C)[C@]3(C)CC[C@H]2C(C)(C)[C@H]1OC(C)=O (some centres not stated), the GI50 (NCI-H226 lung) was 2.06 µM, the TGI (NCI-H226 lung) was 4.69 µM and the GI50 (OVCAR-4 ovarian) was 2.35 µM. The TGI (OVCAR-4 ovarian) was 5.32 µM.
With O=C(NCc1cccc(CNC(=O)Nc2nc3ccccc3[nH]2)c1)Nc1nc2ccccc2[nH]1 the GI50 (HL-60(TB) leukemia) was > 100 µM, the TGI (HL-60(TB) leukemia) was > 100 µM and the GI50 (T-47D breast) was 3.33 µM. For the same molecule, the TGI (T-47D breast) was > 100 µM, the GI50 (SK-MEL-2 melanoma) was 2.36 µM and the TGI (SK-MEL-2 melanoma) was 7.1 µM. For the same molecule, the GI50 (HCT-15 colon) was > 100 µM, the TGI (HCT-15 colon) was > 100 µM and the GI50 (SNB-75 CNS) was 1.58 µM. The TGI (SNB-75 CNS) was 4.18 µM, the GI50 (HOP-62 NSCLC) was 1.95 µM and the TGI (HOP-62 NSCLC) was 4.92 µM. The GI50 (CAKI-1 renal) was > 100 µM, the TGI (CAKI-1 renal) was > 100 µM and the GI50 (A498 renal) was 2.07 µM. For the same molecule, the TGI (A498 renal) was 5.11 µM, the GI50 (ACHN renal) was 4.16 µM and the TGI (ACHN renal) was > 100 µM. The GI50 (NCI/ADR-RES ovarian) was > 100 µM, the TGI (NCI/ADR-RES ovarian) was > 100 µM and the GI50 (HOP-92 NSCLC) was 1.25 µM. For the same molecule, the TGI (HOP-92 NSCLC) was 3.26 µM.
With COc1cc(/C=C2\C[C@H]3[C@@H]4CCc5cc(OCCN6CCCC6)ccc5[C@H]4CC[C@]3(C)C2=O)cc(OC)c1OC the TGI (DU-145 prostate) was 3.56 µM, the TGI (BT-549 breast) was > 100 µM and the TGI (UACC-62 melanoma) was 7.22 µM. It also gave a TGI (KM12 colon) of 3.36 µM, a TGI (SK-OV-3 ovarian) of 8.3 µM and a TGI (SK-MEL-5 melanoma) of 2.86 µM. It also gave a TGI (SK-MEL-2 melanoma) of 5.34 µM, a TGI (HCT-15 colon) of 3.77 µM and a TGI (COLO 205 colon) of 2.81 µM. It also gave a TGI (NCI-H23 lung) of 7.4 µM and a TGI (UACC-257 melanoma) of 4.89 µM.
